Measured values from BindingDB's records for doi:10.1021/jm00101a007 (Centre De Recherche De Vitry-Alfortville, 1992).

Experiments:
[1] = target: Leukotriene B4 receptor (Cavia porcellus); test: Inhibition of [3H]LTB4 binding to Leukotriene B4 receptor in the guinea pig spleen membranes
[2] = target: Leukotriene B4 receptor (Cavia porcellus); test: as above; remark: listed apart in the source

IC50 [1] | IC50 [2] | SMILES
1800 nM |  | O=C(O)CCCCCCOc1cc(-c2ccccc2)c2ccccc2n1
550 nM |  | CC(CCCCOc1cc(-c2ccccc2)c2ccccc2n1)C(=O)O (stereo unspecified)
40 nM |  | CC(C)(CCCCOc1cc(-c2ccc(N)cc2)c2ccccc2n1)C(=O)O
30 nM |  | O=C(O)CCCCCOc1cc(-c2ccc(Cl)cc2)c2ccccc2n1
2500 nM |  | CC(C)(CCCCOc1cc(-c2ccccc2)c2cc(Cl)ccc2n1)C(=O)O
15 nM |  | CC(C)(CCCCOc1cc(-c2ccc(Cl)cc2)c2ccccc2n1)C(=O)O
30 nM |  | CC(C)(CCCCOc1cc(-c2ccc(Cl)cc2)c2ccccc2n1)c1nnn[nH]1
400 nM |  | CC(C)(CCCCOc1cc(-c2ccccc2)c2ccccc2n1)c1nnn[nH]1
 | 183 nM | CC(C)(CCCCOc1cc(-c2ccccc2)c2ccccc2n1)C(=O)O
1100 nM |  | CC(C)(CCCCOc1cc(-c2cccc(Cl)c2)c2ccccc2n1)C(=O)O
300 nM |  | CC(C)(CCCCOc1cc(-c2ccc(C(F)(F)F)cc2)c2ccccc2n1)C(=O)O
30 nM |  | Cc1ccc(-c2cc(OCCCCC(C)(C)C(=O)O)nc3ccccc23)cc1
300 nM |  | COc1cccc(-c2cc(OCCCCC(C)(C)C(=O)O)nc3ccccc23)c1
150 nM |  | CC(C)(CCCCOc1cc(-c2ccc([N+](=O)[O-])cc2)c2ccccc2n1)C(=O)O
500 nM |  | c1ccc(-c2cc(OCCCCCc3nnn[nH]3)nc3ccccc23)cc1
700 nM |  | O=C(O)CCCCCOc1cc(-c2ccccc2)c2ccccc2n1
